Test results from US11453642B2, “Oxygenated amino- or ammonium-containing sulfonic acid, phosphonic acid and carboxylic acid derivatives and their medical use” (GRI BIO, INC., priority 2011, dated 2022).
Read-outs that look alike come from different tables or passages of the source.

Columns and labels:
RBL-2H3 cells = test: Maximum tolerated concentration (cytotoxicity by lactate dehydrogenase release); type: cell-based, Rat; conditions: for MTC (maximum tolerated concentration): highest concentration not causing cytotoxicity (LDH release), RBL-2H3 cells; for SI (safety index): ratio between MTC and IC50
Excerpt: The safety index (SI) of a test compound is the ratio between the maximum tolerated concentration and the IC50 and is used as a measure of the relative safety of the test compound.

DTH response in mice = type: in vivo; conditions: DTH; for Inhibition of mouse ear swelling: 24 h after challenge; for inhibition relative to that of the high dose of dexamethasone: versus dexamethasone 1 mg/kg
Procedure: The anti-inflammatory and anti-allergic effects of compounds 1a and 1c were assessed in a mouse model of skin delayed-type hypersensitivity (DTH) reactions and compared to a vehicle control and to the reference drug dexamethasone. DTH reactions are antigen-specific cell-mediated immune responses, driven primarily by T helper type 1 (Th1) cells, similar to the tuberculin immunization response. The immune reaction induced by an ovalbumin challenge to animals previously sensitized with ovalbumin in Complete Freund's Adjuvant, is characterized by swelling (edema) at the site of challenge, e.g. the mouse ear. Dexamethasone, an anti-inflammatory steroid, reduces cell-mediated immune responses and was employed to validate the responsiveness of the assay to pharmacological treatment.
Female BALB/cJW mice were bred at the University of Lodz, Lodz, Poland and housed in groups of 8 in makrolon cages with a 12 h light-dark cycle. Mice were given free access to food (Agropol S.j., Motycz, Poland) and water.
Sensitization: The protein antigen, ovalbumin, was reconstituted in PBS at 4 mg/ml. An ovalbumin-CFA emulsion was prepared by mixing the protein solution with the CFA suspension at a ratio of 1:1, using two Luer-lock syringes. The emulsion was tested by putting a drop of emulsion onto PBS; if the emulsion remained as a tight droplet on the PBS, the emulsion was deemed ready. Mice were sensitized by subcutaneously injecting 25 μL of emulsion into each side of the tail (100 μg ovalbumin per mouse).
Challenge: On the sixth day after sensitization, DTH was elicited by challenging animals subcutaneously (gauge 30 needle, B. Braun Melsungen, Melsungen, Germany) in the left ears with 10 μL of a 1% suspension of heat-aggregated ovalbumin (HOVA) (100 μg ovalbumin per mouse). The right ears were administered subcutaneously with PBS and served to determine the individual differences in ear thicknesses. HOVA was prepared by heating a 5% solution of ovalbumin in saline for 1 h at 80° C. with occasional swirling. After cooling to room temperature and centrifugation (400 g. 10 min at 4° C.), the pellet was washed twice with saline, resuspended at 2% in PBS and aliquots stored at −30° C. Before injection, HOVA was diluted with an equal volume of PBS and sonicated. Ear thickness was measured with a precise spring-loaded caliper (Art. No. 7309, Mitutoyo, Kawasaki, Japan) before challenge, and 24 h after challenge.
Sensitization, challenge and ear thickness measurement were performed under anesthesia (ketamine 80 mg/kg plus xylazine 8 mg/kg, intraperitoneally).
The anti-inflammatory effects of compounds 1a and 1c were compared to a vehicle control (0.5% methyl cellulose solution) and to the reference drug, dexamethasone. Test compounds were given at 25 or 100 mg/kg orally by gavage (Art. No. 432093, Harvard Apparatus GmbH, March-Hugstetten, Germany) 16 h and 3 h before sensitization and then twice daily with the final dose given 3 h prior to ear challenge (a total of 14 administrations). Dexamethasone was given at 0.1 or 1 mg/kg orally by gavage 3 h before sensitization and once daily with the final dose given 3 h prior to antigen challenge (a total of 7 administrations). All administrations were given in a volume of 10 ml/kg.
To account for individual variability, the increase in right ear thickness, before and 24 h after administration of PBS, was subtracted from the HOVA-induced increase in left ear thickness. The increase in ear thickness was calculated by the difference between ear thickness before and 24 h after antigen challenge. Percent inhibition of ear swelling was calculated according to the following formula: % inhibition=100×(IETvehicle−IETcompound)/IETvehicle where IET=(ET24 hrs pc−ETpredose)HOVA-treated ears−(ET24 hrs pc−ETpredose)PBS-treated ears • (IET, increase ear thickness; ET, ear thickness; pc, post challenge)
Mean and standard deviation (SD) were calculated from individual ear edema values. […]

[1] = 100 mg/kg orally twice daily (14 administrations)

Row | SMILES | MTC (maximum tolerated concentration) (RBL-2H3 cells) [µM] | SI (safety index) (RBL-2H3 cells) | Inhibition of mouse ear swelling (DTH response in mice; [1]) [%] | inhibition relative to that of the high dose of dexamethasone (DTH response in mice) | Inhibition of mouse ear swelling (DTH response in mice; 25 mg/kg orally twice daily (14 administrations)) [%]
1 | CCCCCCCCCCCCN(C)CC(O)CS(=O)(=O)O (stereo not drawn) [Compound 1c, 2-hydroxy-3-(N-methyldodecylammonio)propanesulfonate] | 200 | 48.8 | 41 | 77% | 
2 | CCCCCCCCCCCCCCCCN(C)CC(O)CS(=O)(=O)O (stereo not drawn) [Compound 1a, 2-hydroxy-3-(N-methylhexadecylammonio)propane-sulfonate] | 75 | 10.9 | 52 | up to 98% | 49
